In ChEMBL document CHEMBL2311252, “Cytosporone S with antimicrobial activity, isolated from the fungus Trichoderma sp. FKI-6626” (2013):
In brackets after ≈: the same amount, converted by molar mass.

Legend:
Mucor racemosus = test: Antifungal activity against Mucor racemosus KF223 NBRC4581 by agar dilution method; format: functional
Salmonella typhimurium = test: Antibacterial activity against Salmonella typhimurium KB20 by agar dilution method; format: functional, Salmonella enterica subsp. enterica serovar Typhimurium; details: Salmonella enterica
Bacillus subtilis [1] = test: Antibacterial activity against Bacillus subtilis KB211 ATCC 6633 by agar dilution method; format: functional
Escherichia coli [2] = test: Antibacterial activity against Escherichia coli KB213 NIHJ by agar dilution method; format: functional
Bacillus cereus = test: Antibacterial activity against Bacillus cereus KB143 NBRC3001 by agar dilution method; format: functional
Kocuria rhizophila [3] = test: Antibacterial activity against Kocuria rhizophila KB212 ATCC 9341 by agar dilution method; format: functional
Bacillus subtilis [4] = test: Antibacterial activity against Bacillus subtilis KB355 NBRC3134 by agar dilution method; format: functional
Pseudomonas aeruginosa [5] = test: Antibacterial activity against Pseudomonas aeruginosa KB115 NBRC3080 by agar dilution method; format: functional
Candida albicans = test: Antifungal activity against Candida albicans KF1 by agar dilution method; format: functional
Bacillus subtilis [6] = test: Antibacterial activity against Bacillus subtilis KB340 JCM1465 by agar dilution method; format: functional
[7] = tested on: Mycolicibacterium smegmatis; test: Antibacterial activity against Mycobacterium smegmatis KB42 ATCC 607 by agar dilution method; format: functional
Staphylococcus aureus [8] = test: Antibacterial activity against Staphylococcus aureus KB335 JCM2151 by agar dilution method; format: functional
Micrococcus luteus = test: Antibacterial activity against Micrococcus luteus KB453 NBRC13867 by agar dilution method; format: functional
Staphylococcus aureus [9] = test: Antibacterial activity against Staphylococcus aureus KB349 MRSA K24 by agar dilution method; format: functional
Comamonas terrigena = test: Antibacterial activity against Comamonas terrigena KB358 NBRC13299 by agar dilution method; format: functional
Aspergillus oryzae = test: Antifungal activity against Aspergillus oryzae KF439 by agar dilution method; format: functional
Proteus vulgaris = test: Antibacterial activity against Proteus vulgaris KB127 IF03167 by agar dilution method; format: functional
Klebsiella pneumoniae [10] = test: Antibacterial activity against Klebsiella pneumoniae KB214 ATCC 10031 by agar dilution method; format: functional
Proteus mirabilis = test: Antibacterial activity against Proteus mirabilis KB125 NBRC3849 by agar dilution method; format: functional
Serratia marcescens = test: Antibacterial activity against Serratia marcescens KB215 IAM1021 by agar dilution method; format: functional
Pseudomonas aeruginosa [11] = test: Antibacterial activity against Pseudomonas aeruginosa KB359 NBRC12582 by agar dilution method; format: functional
Aspergillus niger = test: Antifungal activity against Aspergillus niger KF104 ATCC 9643 by agar dilution method; format: functional
Saccharomyces cerevisiae = test: Antifungal activity against Saccharomyces cerevisiae KF26 by agar dilution method; format: functional
Escherichia coli [12] = test: Antibacterial activity against Escherichia coli KB176 NIHJ JC-2 by agar dilution method; format: functional
Kocuria rhizophila [13] = test: Antibacterial activity against Kocuria rhizophila KB354 NBRC12708 by agar dilution method; format: functional
[14] = tested on: Staphylococcus epidermidis; test: Antibacterial activity against Staphylococcus epidermidis KB352 NBRC12993 by agar dilution method; format: functional
Staphylococcus aureus [15] = test: Antibacterial activity against Staphylococcus aureus KB210 ATCC 6538p by agar dilution method; format: functional
Escherichia coli [16] = test: Antibacterial activity against Escherichia coli KB336 JCM5491 by agar dilution method; format: functional
Klebsiella pneumoniae [17] = test: Antibacterial activity against Klebsiella pneumoniae KB357 NBRC357 by agar dilution method; format: functional

`CCCCCC1OC(=O)Cc2cc(OC)c(O)c(O)c21` (racemic) was tested, and the MIC (Mucor racemosus) was 100 µg/mL (≈ 357 µM), the MIC (Salmonella typhimurium) was greater than 100 µg/mL and the MIC (Bacillus subtilis [1]) was 100 µg/mL (≈ 357 µM). For the same compound, the MIC (Escherichia coli [2]) was 100 µg/mL (≈ 357 µM), the MIC (Bacillus cereus) was 50 µg/mL (≈ 178 µM) and the MIC (Kocuria rhizophila [3]) was 50 µg/mL (≈ 178 µM). The MIC (Bacillus subtilis [4]) was 50 µg/mL (≈ 178 µM), the MIC (Pseudomonas aeruginosa [5]) was 100 µg/mL (≈ 357 µM) and the MIC (Candida albicans) was 25 µg/mL (≈ 89.2 µM). The MIC (Bacillus subtilis [6]) was 50 µg/mL (≈ 178 µM), the MIC [7] was 50 µg/mL (≈ 178 µM) and the MIC (Staphylococcus aureus [8]) was 50 µg/mL (≈ 178 µM). For the same compound, the MIC (Micrococcus luteus) was 50 µg/mL (≈ 178 µM), the MIC (Staphylococcus aureus [9]) was 50 µg/mL (≈ 178 µM) and the MIC (Comamonas terrigena) was 50 µg/mL (≈ 178 µM). It also gave an MIC (Aspergillus oryzae) of 50 µg/mL (≈ 178 µM), an MIC (Proteus vulgaris) of 50 µg/mL (≈ 178 µM) and an MIC (Klebsiella pneumoniae [10]) greater than 100 µg/mL. For the same compound, the MIC (Proteus mirabilis) was 100 µg/mL (≈ 357 µM), the MIC (Serratia marcescens) was greater than 100 µg/mL and the MIC (Pseudomonas aeruginosa [11]) was 100 µg/mL (≈ 357 µM). It also gave an MIC (Aspergillus niger) of 50 µg/mL (≈ 178 µM), an MIC (Saccharomyces cerevisiae) of 12.5 µg/mL (≈ 44.6 µM) and an MIC (Escherichia coli [12]) greater than 100 µg/mL. For the same compound, the MIC (Kocuria rhizophila [13]) was 50 µg/mL (≈ 178 µM), the MIC [14] was 50 µg/mL (≈ 178 µM) and the MIC (Staphylococcus aureus [15]) was 50 µg/mL (≈ 178 µM). It also gave an MIC (Escherichia coli [16]) greater than 100 µg/mL and an MIC (Klebsiella pneumoniae [17]) greater than 100 µg/mL.
